Data reported in ChEMBL document CHEMBL3132790 (Medchemcomm, 2013).

Tests used:
[1] = biological target: Histamine H4 receptor (Homo sapiens, UniProt Q9H3N8); experiment: Displacement of [3H]histamine from wild type human histamine H4 receptor transfected in HEK293T cells after 1.5 hrs by liquid scintillation counting analysis; assay type: cell-based, HEK-293T
[2] = biological target: Histamine H4 receptor (Homo sapiens, UniProt Q9H3N8, L175V); experiment: Displacement of [3H]histamine from human histamine H4 receptor L175'5.39V mutant transfected in HEK293T cells after 1.5 hrs by liquid scintillation counting analysis; assay type: cell-based, HEK-293T
Chain of Histamine H4 receptor (Homo sapiens, UniProt Q9H3N8, L175V) (Q9H3N8 whole entry L175V): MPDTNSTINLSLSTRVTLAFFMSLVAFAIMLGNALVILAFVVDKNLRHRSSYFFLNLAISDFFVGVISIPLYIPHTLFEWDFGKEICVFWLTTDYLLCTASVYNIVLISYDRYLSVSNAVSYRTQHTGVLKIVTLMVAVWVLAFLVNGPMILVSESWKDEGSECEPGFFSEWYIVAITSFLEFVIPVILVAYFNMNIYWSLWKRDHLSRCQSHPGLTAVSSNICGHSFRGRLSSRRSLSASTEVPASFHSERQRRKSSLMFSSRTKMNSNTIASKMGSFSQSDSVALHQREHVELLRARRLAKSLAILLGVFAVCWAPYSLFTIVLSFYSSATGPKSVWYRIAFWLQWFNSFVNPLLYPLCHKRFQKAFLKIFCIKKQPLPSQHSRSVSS

[3] = biological target: Histamine H4 receptor (Homo sapiens, UniProt Q9H3N8, E182Q); experiment: Displacement of [3H]-JNJ 7777120 from human histamine H4 receptor E182'5.46Q mutant transfected in HEK293T cells after 1.5 hrs by liquid scintillation counting analysis
Chain of Histamine H4 receptor (Homo sapiens, UniProt Q9H3N8, E182Q) (Q9H3N8 whole entry E182Q): as the sequence (Q9H3N8 whole entry L175V) above, with V175L, E182Q counted along it

Ki [1] | Ki [2] | Ki [3] | SMILES
7.94 nM |  |  | CN1CCN(c2cc(-c3ccc([N+](=O)[O-])cc3)nc(N)n2)CC1
15.8 nM |  |  | COc1ccc(-c2cc(N3CCN(C)CC3)nc(N)n2)cc1
2 nM | 63.1 nM | 200 nM | CN1CCN(c2cc(-c3ccc(Cl)cc3)nc(N)n2)CC1
5010 nM |  |  | COc1ccc2[nH]c(C(=O)N3CCN(C)CC3)cc2c1
100 nM |  |  | CN1CCN(C(=O)c2cc3cc([N+](=O)[O-])ccc3[nH]2)CC1
 | 20 nM | 63.1 nM | CN1CCN(c2cc(-c3ccccc3)nc(N)n2)CC1
5.01 nM |  |  | CN1CCN(c2cc(-c3ccc(N)cc3)nc(N)n2)CC1
